Tested on: C57BL/6-mice
Description: Animal experiments: • General: 10-12 week old male C57BL/6-mice were kept at normoxia or in a hypoxia chamber at 10% O2 for five weeks and got either regular chow or chow containing 0.2% Li2CO3. • IFT88 knock-out in mice: IFT88-flox mice were bred with Cdh5-cre mice. 2 weeks prior to treatment, IFT88fl/fl, Cdh5-cre+ and Cdh-cre- mice were intraperitoneally injected with tamoxifen (75 mg/kg body weight) to induce knock-out. • Echocardiography: Mice were anesthetized with initially 3% isoflurane. The animals are fixed in dorsal position and their thoracal hair was removed with depilatory cream. Pulmonary artery flow, tricuspid valve movement and other echocardiographic parameters were assessed with the echo device Vevo3100. • RVSP measurement: After five weeks, the mice got an intraperitoneal injection of ketamin (200 mg/kg bodyweight (bw)) and xylazine (10 mg/kg bw). A 2F microtip millar catheter was advanced into the right ventricle via the jugularis vein to measure right ventricle systolic pressure (RVSP).

Substance: lithium carbonate [Li2CO3]
- right ventricular systolic blood pressure (chow containing 0.2% Li2CO3, hypoxia 10% O2 for five weeks): reduced the increase
- development of a PH under chronic hypoxia (food with 0.2% Li2CO3, 10% O2 for 5 weeks, Fig. 1D): prevents the development of a PH

Reference: patent EP4218772A1, “LITHIUM SALT FOR USE IN TREATMENT OF PULMONARY HYPERTENSION” (Charité - Universitätsmedizin Berlin, priority 2022, dated 2023)
